According to US12133908B2, “Personal care composition comprising taurine, arginine, glycine” (Colgate-Palmolive Company, priority 2015, dated 2024):

Key:
[1] = system: 3D EpiDerm skin models (SIT 200 skin irritation model); experiment: in vitro skin irritation assay, IL-1α release by ELISA; assay type: cell-based
Procedure: To measure skin irritation, in vitro experiments are conducted using 3D EpiDerm skin models (SIT 200 skin irritation model, MatTek Corporation, Ashland, MA 01721). The irritation assay measures IL-la protein released by the cells to the media to evaluate the level of skin irritation and inflammation. In vitro skin samples are treated topically with 30 μl of test compounds (taurine (1% by weight) or taurine-L-arginine-glycine complex (1% by weight) of 2:1:1 (a mixture of 0.5% taurine, 0.25% L-arginine and 0.25% glycine, by weight) for 1 hour in tissue culture incubator. To induce irritation, cells are co-treated with 0.05% SDS and the test compounds. Following the incubation, skin samples are washed with PBS and placed in a culture medium and incubated for 24 hours. Cell culture media are collected for IL-la release assay. IL-la release is analyzed by ELISA assay kit (R&D Systems, Minneapolis, MN 55413). The greater IL-la release, the greater the irritation potential. […] Samples 1-6 are evaluated in the in vitro irritation assay as described above in Example 2.

HaCaT cells = experiment: in vitro migration assay (scratch gap closure) for barrier repair; assay type: cell-based, human; conditions: 24 hours incubation, taurine 0.0005% alone or with L-arginine 0.0001% and glycine 0.0001% (Example 1)
Procedure: To determine barrier repair function of taurine combined with L-arginine and glycine, in vitro experiments are conducted using HaCaT cells. HaCaT cells are spontaneously transformed aneuploid immortal keratinocyte cell line from adult human skin and are grown until 100% confluent. After that, each well is scratched with 1000 μl tip to create the gap and washed with 1 ml of PBS twice to eliminate dead floating cells. Following that, cells are treated with 1 ml of culture media for control (untreated), Taurine (0.0005% by weight), and amino acid complex of taurine (0.0005% by weight) combined with L-arginine (0.0001% by weight) and glycine (0.0001% by weight). Then, initial measurements of gap distance are taken using microscope (OLYMPUS IX71). Next, the treated cells are incubated for 24 hours and measurements are taken again.
The migration assay measures cell migration in order to evaluate the barrier repair.

Row | SMILES | IL-1α release (% of control) ([1]; 0.05% SDS alone (Example 2)) | IL-1α release (% of control) ([1]; 0.05% SDS alone (Example 4)) | increase of IL-1α release ([1]; 0.05% SDS alone vs untreated (Example 2)) | Cell migration in 24hr (% of control) (HaCaT cells) | IL-1α release (% of control) ([1]; 1% test compound co-treated with 0.05% SDS (Example 4)) | IL-1α release (% of control) ([1]; 30 μl of 1% test compound co-treated with 0.05% SDS for 1 hour, then 24 hours in medium (Example 2))
1 | CCCCCCCCCCCCOS(=O)(=O)[O-].[Na+] [SDS, sodium dodecyl sulfate] | 120 % of control | 140 % of control | 20% |  |  | 
2 | NCCS(=O)(=O)O [taurine, 2-aminoethanesulfonic acid] |  |  |  | 66 % of control | 114 % of control | 70 % of control
